# Legend:
# [1] = test system: interleukin-6 (IL-6) generation; assay: Inhibition of interleukin-6 (IL-6) generation in LPS-treated Raw 264.7 cells (ELISA); assay type: cell-based, mouse; settings: Raw 264.7, LPS treated; read-out: Grades of IC50 on IL-6 generation
# Protocol: Raw 264.7 cells were distributed by the same manner as described in Experimental Example <2-1>, and IL-6 included in the supernatant treated with each sample at different concentrations was measured by enzyme-linked immunosorbent assay (IL-6 ELISA kit, BD Bioscience, San Diego, Calif.).
# Particularly, 10-fold diluted supernatant was distributed in a 96-well plate on which IL-6 antibody was attached, followed by adhesion for 2 hours. The supernatant remaining after the adhesion was washed with a washing buffer. The detection antibody and HRP were adhered on the washed plate for 1 hour. The remaining antibody was washed. Color development was induced by using TMB substrate. The reaction was terminated with sulfuric acid solution. Then, OD450 was measured. IL-6 in the supernatant was quantified by using the standard curve made with the standard IL-6 included in the kit. IL-6 suppression rate was calculated by measuring the same concentration that could inhibit IL-6 generation up to 50% in the LPS treated group and the results are shown in Table 8.
# TNF-alpha = settings: DBA/1 CIA mice, 30 mg/kg oral, FIG. 13
# Protocol: (§1) Bovine type II collagen (100 μg/mouse, Hondrax, Seattle, USA) and complete Freund's adjuvant (Chondrex, Seattle, USA) were intradermally injected in the tail of […]. On day 21, 100 μg of bovine type II collagen was mixed with incomplete Freund's adjuvant (IFA), which was injected in the tail of each mouse once again to induce arthritis.
# (§2) The compound of Example 25 of the invention was dissolved in a solvent (10% DMAC+10% Tween 80 in PBS).
# (§3) Administration pathway: Oral administration Group (6 per group) • Vehicle control group (CIA group) • Dexamethasone (0.3 mg/kg)—positive control group • Example 25 compound group (30 mg/kg)
# (§4) ELISA was performed with the serum and foot to investigate whether or not the compound of the invention could suppress the generation of TNF-alpha and interleukin-6, the inflammatory cytokines known as the promoter of inflammation which is the common symptom of acute and chronic arthritis.
# interleukin-6 = settings: DBA/1 CIA mice, 30 mg/kg oral, FIG. 14
# Protocol: as §1, §2, §3, §4
# [2] = test system: rheumatoid arthritis animal model; settings: DBA/1 CIA mice, 30 mg/kg oral, FIGS. 11 and 12
# Protocol: as §1, §2, §3
# [3] = test system: Raw 264.7 (ATCC TIB71) cells; assay: Evaluation of cell survival rate of macrophages (MTT); assay type: cell-based, mouse; settings: Raw 264.7, 10 μM, 24 hours
# Protocol: Raw 264.7 (ATCC TIB71) cells, the mouse derived macrophages', were inoculated in a 96-well plate containing DMEM (Dulbecco's modified Eagle medium; Welgene, Korea) supplemented with 10% FBS (Fetal Bovine Serum), 2 mM glutamine, penicillin (100 unit/ml), and streptomycin (100 μg/ml) at the density of 1×10^4 cells/well. The cells were cultured in 5% CO2 at 37° C. for 4 hours to attach the cells onto the plate. Next, the cells were treated with each sample at different concentrations, followed by further culture for 24 hours. To investigate the cell survival rate, 5 mg/ml of MTT (3-(4,5-dimethylthiazol-2-yl)-2,5-diphenyltetrazoliumbromide, Amresco, OH, USA) was distributed thereto (10 μl/well), followed by culture for 4 hours. Then, the supernatant was eliminated. Formazan reduced from MTT by mitochondria was dissolved in 100 μl of DMSO and then OD570 was measured. 0.2% DMSO was used for the negative control.
# [4] = test system: Nitrogen Oxide (NO) generation; assay: Inhibition of nitrogen oxide (NO) generation in LPS-treated Raw 264.7 cells (Griess); assay type: cell-based, mouse; settings: Raw 264.7, LPS 500 ng/ml, 24 hours
# Protocol: Raw 264.7 (ATCC TIB71) cells were inoculated in a 96-well plate containing the same medium as used in Experimental Example 1 at the density of 1×10^5 cells/well. The cells were cultured in 5% CO2 at 37° C. for 4 hours to attach the cells onto the plate. The cells were treated with each sample at different concentrations, followed by further culture for 1 hour. […] were treated thereto at the final concentration of 500 ng/ml, followed by further culture for 24 hours. 100 μl of the supernatant was taken and transferred in a new plate, which was mixed with Griess reagent (a mixture of 1% sulfanilamide, 0.1% N-[1-naphthyl]-ethylenediamine dihydrochloride, and 5% phosphoric acid), followed by reaction for 10 minutes. Then, OD540 was measured. NO generation was quantified by using the sodium nitrite standard curve prepared from […] dissolved in the same medium at different concentrations. Considering the NO generation of the inflammation induced macrophages as 100%, the NO generation inhibition rate was calculated and presented in Table 7.
structure (smiles),measurement,setting,value
"COc1cc(CCCO)cc(CCc2cccc(C)c2)c1O [Example 15, 4-(3-hydroxypropyl)-2-methoxy-6-(3-methylpenethyl)phenol]",IC50,[1],20 to 30 µM
same,generation of TNF-alpha induced by collagen,TNF-alpha,inhibited
same,generation of interleukin-6 induced by collagen,interleukin-6,inhibited
same,edema in the foot induced by collagen (clinical score),[2],suppressed edema in the foot induced by collagen up to the level of the positive control
same,"Grades of cell survival rate (%, in 10 μM)",[3],A (A: 90<A≤100)
same,Grades of NO generation inhibition rate (%),[4],A (A: 35<A≤100)

# Reference: patent US10053443B2, “2-phenylbenzofuran derivatives, method for preparing the same and use of the same for treating inflammatory disease” (KOREA RESEARCH INSTITUTE OF BIOSCIENCE AND BIOTECHNOLOGY, priority 2014, dated 2018)
